The NIST ThermoML archive (doi:10.1016/j.jct.2004.12.016)
“And” between values parts separate entries of the source, which are not always exact repeats. Equal entries are not always repeated. Numbers after ± are expanded uncertainties.

Conditions: for vapor or sublimation pressure: Closed cell (Static) method; for mass density: Fluid (supercritical or subcritical phases), isochoric method

In the case of N [ammonia], the “vapor or sublimation pressure” value (310 K, Liquid) is reported as 1423.6 ± 2.9 kPa [middle of 6 runs], the “vapor or sublimation pressure” value (350 K, Liquid) is reported as 3867 ± 6.3 kPa [middle of 5 runs] and the “vapor or sublimation pressure” value (400 K, Liquid) is reported as 10303 ± 16 kPa [middle of 4 runs]. For the same compound, the “vapor or sublimation pressure” value (404.5 K, Liquid) was 11148 ± 0.033 kPa and 11151 ± 0.033 kPa and 11150 ± 0.033 kPa, the “vapor or sublimation pressure” value (405.5 K, Liquid) was 11343 ± 0.033 kPa and the “vapor or sublimation pressure” value (405.53 K, Liquid) was 11351 ± 0.033 kPa. The “vapor or sublimation pressure” value (405.54 K, Liquid) was 11352 ± 0.033 kPa and 11354 ± 0.033 kPa and 11353 ± 0.033 kPa, the mass density (405.55 K, 11351 kPa) was 235.01 ± 2 kg/m3 and the mass density (405.55 K, 11355 kPa) was 249.99 ± 2 kg/m3. For the same compound, the mass density (405.55 K, 11359 kPa) was 255.19 ± 2 kg/m3, the “vapor or sublimation pressure” value (405.55 K, Liquid) was 11356 ± 0.033 kPa [middle of 5 runs] and the mass density (405.56 K, 11355 kPa) was 242.91 ± 2 kg/m3 and 244.06 ± 2 kg/m3. For the same compound, the mass density (405.56 K, 11356 kPa) was 241.93 ± 2 kg/m3 and 242.97 ± 2 kg/m3, the mass density (405.56 K, 11357 kPa) was 244.01 ± 2 kg/m3 and the mass density (405.56 K, 11358 kPa) was 244.95 ± 2 kg/m3 and 243.49 ± 2 kg/m3. For the same compound, the mass density (405.56 K, 11359 kPa) was 244 ± 2 kg/m3, the mass density (405.57 K, 11358 kPa) was 242.95 ± 2 kg/m3 and the mass density (405.57 K, 11360 kPa) was 241.94 ± 2 kg/m3 and 244.1 ± 2 kg/m3 and 245.04 ± 2 kg/m3. It also gave a mass density (405.57 K, 11361 kPa) of 243.96 ± 2 kg/m3, a mass density (405.57 K, 11370 kPa) of 242.83 ± 2 kg/m3 and a mass density (405.58 K, 11360 kPa) of 243.01 ± 2 kg/m3. For the same compound, the mass density (405.58 K, 11362 kPa) was 242.02 ± 2 kg/m3 and 244.08 ± 2 kg/m3 and 244.99 ± 2 kg/m3, the mass density (405.6 K, 11355 kPa) was 224.92 ± 2 kg/m3 and the mass density (405.6 K, 11356 kPa) was 229.9 ± 2 kg/m3. For the same compound, the mass density (405.6 K, 11362 kPa) was 235.14 ± 2 kg/m3, the mass density (405.6 K, 11363 kPa) was 239.9 ± 2 kg/m3 and the mass density (405.6 K, 11367 kPa) was 245.12 ± 2 kg/m3. The Critical temperature (Liquid, Visual observation in an unstirred cell) was 405.56 ± 0.06 K and the Critical density (Liquid, metal-bellows volumometer) was 244 ± 2 kg/m3.
